Results reported in publication PMC4893628, “Chalcone-based Selective Inhibitors of a C4 Plant Key Enzyme as Novel Potential Herbicides” (Scientific Reports, 2016).
Like-named read-outs stand apart in the source and are kept apart here.

What was measured:
Assay type in all cases: cell-based
[1] = system: Corynebacterium glutamicum ATCC13032; experiment: Bacterial growth in microscale cultivation, C. glutamicum; conditions: relative to control; for activity at 0.1 µM / activity at 1 µM / activity at 10 µM: Corynebacterium glutamicum
In short: (§1)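 Inhibitors in DMSO were added to the medium, at a maximum of 400 μM for trans-chalcone and 100 μM for 2'-hydroxychalcone. Cultures were seeded at OD600 0.5, or 0.25 for B. subtilis, and growth was followed as 620 nm backscatter in a BioLector at 1200 rpm. Final backscatter, growth rate and lag phase were compared with DMSO controls.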

[2] = system: Escherichia coli K-12 MG1655; experiment: Bacterial growth in microscale cultivation, E. coli; conditions: relative to control; for activity at 0.1 µM / activity at 1 µM / activity at 10 µM: Escherichia coli
In short: as §1

[3] = system: Pseudomonas putida KT2440; experiment: Bacterial growth in microscale cultivation, P. putida; conditions: relative to control; for activity at 0.1 µM / activity at 1 µM / activity at 10 µM: Pseudomonas putida
In short: as §1

[4] = system: Bacillus subtilis 168; experiment: Bacterial growth in microscale cultivation, B. subtilis; conditions: relative to control
In short: as §1

SMILES: O=C(/C=C/c1ccc(O)c(O)c1)c1ccc(O)c(O)c1O [Compound 12, 2′,3′,4′,3,4-Pentahydroxy-chalcone]
- activity at 0.1 µM ([1]; ATCC13032, complex medium, 0.1 µM, read-out: Final Backscatter): 97%
- activity at 0.1 µM ([1]; ATCC13032, complex medium, 0.1 µM, read-out: Growth rate): 108%
- activity at 1 µM ([1]; ATCC13032, complex medium, 1 µM, read-out: Final Backscatter): 93.8%
- activity at 1 µM ([1]; ATCC13032, complex medium, 1 µM, read-out: Growth rate): 132%
- activity at 10 µM ([1]; ATCC13032, complex medium, 10 µM, read-out: Final Backscatter): 89.6%
- activity at 10 µM ([1]; ATCC13032, complex medium, 10 µM, read-out: Growth rate): 144%
- activity at 0.1 µM ([1]; ATCC13032, minimal medium, 0.1 µM, read-out: Final Backscatter): 99.6%
- activity at 0.1 µM ([1]; ATCC13032, minimal medium, 0.1 µM, read-out: Growth rate): 102%
- activity at 1 µM ([1]; ATCC13032, minimal medium, 1 µM, read-out: Final Backscatter): 97.6%
- activity at 1 µM ([1]; ATCC13032, minimal medium, 1 µM, read-out: Growth rate): 102%
- activity at 10 µM ([1]; ATCC13032, minimal medium, 10 µM, read-out: Final Backscatter): 96.7%
- activity at 10 µM ([1]; ATCC13032, minimal medium, 10 µM, read-out: Growth rate): 97.9%
- Lag Phase ([1]; complex medium, 0.1 µM): 96,4%
- Lag Phase ([1]; complex medium, 1 µM): 84,1%
- Lag Phase ([1]; complex medium, 10 µM): 99,3%
- Lag Phase ([1]; minimal medium, 0.1 µM): 99,3%
- Lag Phase ([1]; minimal medium, 1 µM): 99,3%
- Lag Phase ([1]; minimal medium, 10 µM): 100,7%
- activity at 0.1 µM ([2]; MG1655, complex medium, 0.1 µM, read-out: Final Backscatter): 98.5%
- activity at 0.1 µM ([2]; MG1655, complex medium, 0.1 µM, read-out: Growth rate): 106%
- activity at 1 µM ([2]; MG1655, complex medium, 1 µM, read-out: Final Backscatter): 100%
- activity at 1 µM ([2]; MG1655, complex medium, 1 µM, read-out: Growth rate): 100%
- activity at 10 µM ([2]; MG1655, complex medium, 10 µM, read-out: Final Backscatter): 97.9%
- activity at 10 µM ([2]; MG1655, complex medium, 10 µM, read-out: Growth rate): 111%
- activity at 0.1 µM ([2]; MG1655, minimal medium, 0.1 µM, read-out: Final Backscatter): 99.7%
- activity at 0.1 µM ([2]; MG1655, minimal medium, 0.1 µM, read-out: Growth rate): 99.8%
- activity at 1 µM ([2]; MG1655, minimal medium, 1 µM, read-out: Final Backscatter): 98.5%
- activity at 1 µM ([2]; MG1655, minimal medium, 1 µM, read-out: Growth rate): 100%
- activity at 10 µM ([2]; MG1655, minimal medium, 10 µM, read-out: Final Backscatter): 101%
- activity at 10 µM ([2]; MG1655, minimal medium, 10 µM, read-out: Growth rate): 104%
- Lag Phase ([2]; complex medium, 0.1 µM): 108,5%
- Lag Phase ([2]; complex medium, 1 µM): 102,8%
- Lag Phase ([2]; complex medium, 10 µM): 111,4%
- Lag Phase ([2]; minimal medium, 0.1 µM): 99,0%
- Lag Phase ([2]; minimal medium, 1 µM): 102,0%
- Lag Phase ([2]; minimal medium, 10 µM): 95,1%
- activity at 0.1 µM ([3]; KT2440, complex medium, 0.1 µM, read-out: Final Backscatter): 97.8%
- activity at 0.1 µM ([3]; KT2440, complex medium, 0.1 µM, read-out: Growth rate): 104%
- activity at 1 µM ([3]; KT2440, complex medium, 1 µM, read-out: Final Backscatter): 98.2%
- activity at 1 µM ([3]; KT2440, complex medium, 1 µM, read-out: Growth rate): 103%
- activity at 10 µM ([3]; KT2440, complex medium, 10 µM, read-out: Final Backscatter): 98.6%
- activity at 10 µM ([3]; KT2440, complex medium, 10 µM, read-out: Growth rate): 99.7%
- activity at 0.1 µM ([3]; KT2440, minimal medium, 0.1 µM, read-out: Final Backscatter): 92.5%
- activity at 0.1 µM ([3]; KT2440, minimal medium, 0.1 µM, read-out: Growth rate): 105%
- activity at 1 µM ([3]; KT2440, minimal medium, 1 µM, read-out: Final Backscatter): 93.6%
- activity at 1 µM ([3]; KT2440, minimal medium, 1 µM, read-out: Growth rate): 104%
- activity at 10 µM ([3]; KT2440, minimal medium, 10 µM, read-out: Final Backscatter): 99.3%
- activity at 10 µM ([3]; KT2440, minimal medium, 10 µM, read-out: Growth rate): 100%
- Lag Phase ([3]; complex medium, 0.1 µM): 103,3%
- Lag Phase ([3]; complex medium, 1 µM): 103,9%
- Lag Phase ([3]; complex medium, 10 µM): 105,9%
- Lag Phase ([3]; minimal medium, 0.1 µM): 108,8%
- Lag Phase ([3]; minimal medium, 1 µM): 106,1%
- Lag Phase ([3]; minimal medium, 10 µM): 100,0%
- activity at 0.1 µM ([4]; Bacillus subtilis, 168, complex medium, 0.1 µM, read-out: Final Backscatter): 93.5%
- activity at 0.1 µM ([4]; Bacillus subtilis, 168, complex medium, 0.1 µM, read-out: Growth rate): 96.7%
- activity at 1 µM ([4]; Bacillus subtilis, 168, complex medium, 1 µM, read-out: Final Backscatter): 93.9%
- activity at 1 µM ([4]; Bacillus subtilis, 168, complex medium, 1 µM, read-out: Growth rate): 104%
- activity at 10 µM ([4]; Bacillus subtilis, 168, complex medium, 10 µM, read-out: Final Backscatter): 90.6%
- activity at 10 µM ([4]; Bacillus subtilis, 168, complex medium, 10 µM, read-out: Growth rate): 109%
- activity at 0.1 µM ([4]; Bacillus subtilis, 168, minimal medium, 0.1 µM, read-out: Final Backscatter): 102%
- activity at 0.1 µM ([4]; Bacillus subtilis, 168, minimal medium, 0.1 µM, read-out: Growth rate): 123%
- activity at 1 µM ([4]; Bacillus subtilis, 168, minimal medium, 1 µM, read-out: Final Backscatter): 98.6%
- activity at 1 µM ([4]; Bacillus subtilis, 168, minimal medium, 1 µM, read-out: Growth rate): 113%
- activity at 10 µM ([4]; Bacillus subtilis, 168, minimal medium, 10 µM, read-out: Final Backscatter): 104%
- activity at 10 µM ([4]; Bacillus subtilis, 168, minimal medium, 10 µM, read-out: Growth rate): 115%
- Lag Phase ([4]; complex medium, 0.1 µM): 110,6%
- Lag Phase ([4]; complex medium, 1 µM): 102,7%
- Lag Phase ([4]; complex medium, 10 µM): 94,7%
- Lag Phase ([4]; minimal medium, 0.1 µM): 98,2%
- Lag Phase ([4]; minimal medium, 1 µM): 100,6%
- Lag Phase ([4]; minimal medium, 10 µM): 100,0%
